Assay results from ChEMBL document CHEMBL1149138 (J Med Chem, 2004).
pIC50: −log10 of the molar value.

Key:
[1] = target: Neuraminidase (Influenza B virus (strain B/Lee/1940), UniProt P03474); set-up: species or system Influenza B virus (strain: B/Lee/40)
[2] = target: Neuraminidase (Influenza A virus (A/Puerto Rico/8/1934(H1N1)), UniProt P03468)
[3] = test system: Mus musculus; assay: Maximum weight lose in influenza A infected mice when treated by the compound at a dose of 10 mg/kg/day b.i.d.; type: functional
[4] = test system: Mus musculus; assay: Maximum weight lose in influenza A infected mice when treated by the compound at a dose of 1 mg/kg/day b.i.d.; type: functional
[5] = test system: Mus musculus; assay: Maximum weight lose in influenza A infected mice when treated by the compound at a dose of 0.1 mg/kg/day b.i.d.; type: functional
[6] = test system: Mus musculus; assay: Maximum weight lose in influenza A infected mice when treated by the compound at a dose of 0 mg/kg/day b.i.d.; type: functional

Chain of Neuraminidase (P03474 whole entry): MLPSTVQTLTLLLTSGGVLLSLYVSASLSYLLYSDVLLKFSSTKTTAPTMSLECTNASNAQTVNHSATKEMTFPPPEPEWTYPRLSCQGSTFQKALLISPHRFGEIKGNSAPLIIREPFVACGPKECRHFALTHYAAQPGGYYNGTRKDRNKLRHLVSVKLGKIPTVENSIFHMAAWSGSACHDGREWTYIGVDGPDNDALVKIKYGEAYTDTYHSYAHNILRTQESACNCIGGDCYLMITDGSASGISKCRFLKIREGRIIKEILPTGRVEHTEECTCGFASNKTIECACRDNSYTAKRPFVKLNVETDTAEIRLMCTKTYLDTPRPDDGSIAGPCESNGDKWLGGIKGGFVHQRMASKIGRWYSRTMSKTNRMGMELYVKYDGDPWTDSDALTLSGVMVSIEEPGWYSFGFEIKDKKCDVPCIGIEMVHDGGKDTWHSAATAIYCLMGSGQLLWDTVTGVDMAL
Chain of Neuraminidase (Influenza A virus (A/Puerto Rico/8/1934(H1N1)), UniProt P03468) (P03468 whole entry): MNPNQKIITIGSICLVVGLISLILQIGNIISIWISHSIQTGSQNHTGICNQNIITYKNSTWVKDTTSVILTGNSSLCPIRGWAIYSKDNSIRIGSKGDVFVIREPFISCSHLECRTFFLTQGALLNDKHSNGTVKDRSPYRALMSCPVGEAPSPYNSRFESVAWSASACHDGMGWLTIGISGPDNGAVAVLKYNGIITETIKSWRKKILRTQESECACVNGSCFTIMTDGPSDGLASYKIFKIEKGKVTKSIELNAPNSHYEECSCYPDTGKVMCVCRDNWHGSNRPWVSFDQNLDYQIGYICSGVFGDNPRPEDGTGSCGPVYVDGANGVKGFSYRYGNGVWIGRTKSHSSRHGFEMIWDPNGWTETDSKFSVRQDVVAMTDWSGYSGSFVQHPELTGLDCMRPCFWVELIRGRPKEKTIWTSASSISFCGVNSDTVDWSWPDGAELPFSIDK

| SMILES | pIC50 [1] | further results |
| --- | --- | --- |
| CCN(CCO)C(=O)C(NC(C)=O)[C@H]1CC(C(=O)O)C[C@@H]1N=C(N)N (stereo partly specified) | < 4.52 | – |
| CC(=O)NC(C(=O)N(C)C(C)C)[C@H]1CC(C(=O)O)C[C@@H]1N=C(N)N (stereo partly specified) | 5.17 | – |
| CC(=O)NC(C(=O)N1CC(C)CC(C)C1)[C@H]1CC(C(=O)O)C[C@@H]1N=C(N)N (stereo partly specified) | < 4.00 | – |
| CC(=O)NC(C(=O)O)[C@@H]1CCC(=C2SCCCS2)C1 (stereo in doubt) | – | pIC50 [2]: 4.60 |
| CC(=O)NC(C(=O)N1CCOCC1)[C@H]1CC(C(=O)O)C[C@@H]1N=C(N)N (stereo partly specified) | 5.11 | – |
| CCCN(CCC)C(=O)C(NC(C)=O)[C@H]1C[C@](O)(C(=O)O)C[C@@H]1N=C(N)N (mixture of isomers) | – | pIC50 [2]: 2.64 |
| CC(=O)NC(C(=O)NC(C)CCc1ccccc1)[C@H]1CC(C(=O)O)C[C@@H]1N=C(N)N (stereo partly specified) | 4.90 | – |
| CCCC(C)NC(=O)C(NC(C)=O)[C@H]1CC(C(=O)O)C[C@@H]1N=C(N)N (stereo partly specified) | 4.91 | – |
| CCC1CCCCN1C(=O)C(NC(C)=O)[C@H]1CC(C(=O)O)C[C@@H]1N=C(N)N (stereo partly specified) | 5.51 | – |
| CC(=O)NC(C(=O)N1CCC1)[C@H]1CC(C(=O)O)C[C@@H]1N=C(N)N (stereo partly specified) | 5.08 | – |
| CC(=O)NC(C(=O)N1CCCCCC1)[C@H]1CC(C(=O)O)C[C@@H]1N=C(N)N (stereo partly specified) | 4.60 | – |
| CCCN(CC)C(=O)C(NC(C)=O)[C@H]1CC(C(=O)O)C[C@@H]1N=C(N)N (stereo partly specified) | 5.15 | – |
| CCCN(CCC)C(=O)C(NC(C)=O)[C@H]1CC(C(=O)O)C[C@@H]1N=C(N)N (stereo partly specified) | 5.04 | – |
| CCCN(CCC)C(=O)C(NC(C)=O)[C@H]1C[C@](O)(C(=O)O)C[C@@H]1N=C(N)N (stereo in doubt) | 4.48 | pIC50 [2]: 5.31 |
| C=CCN(C)C(=O)C(NC(C)=O)[C@H]1CC(C(=O)O)C[C@@H]1N=C(N)N (stereo partly specified) | 4.93 | – |
| CC(=O)NC(C(=O)N1CCSCC1)[C@H]1CC(C(=O)O)C[C@@H]1N=C(N)N (stereo partly specified) | 4.54 | – |
| CCCCNC(=O)C(NC(C)=O)[C@H]1CC(C(=O)O)C[C@@H]1N=C(N)N (stereo partly specified) | 4.33 | – |
| CC(=O)NC(C(=O)O)[C@@H]1CCC(=C2SCCCS2)C1 (single isomer, unassigned) | 5.07 | pIC50 [2]: 7.37 |
| CCCN(CCC)C(=O)C(NC(C)=O)[C@H]1C[C@@](O)(C(=O)O)C[C@@H]1N=C(N)N (stereo partly specified) | – | pIC50 [2]: 6.33 |
| CC(=O)NC(C(=O)NC(C)CC(C)C)[C@H]1CC(C(=O)O)C[C@@H]1N=C(N)N (stereo partly specified) | 4.94 | – |
| CC(=O)NC(C(=O)N1CCC(C)CC1)[C@H]1CC(C(=O)O)C[C@@H]1N=C(N)N (stereo partly specified) | 4.37 | – |
| CCNC(=O)C(NC(C)=O)[C@H]1CC(C(=O)O)C[C@@H]1N=C(N)N (stereo partly specified) | 5.51 | – |
| CCCCN(C)C(=O)C(NC(C)=O)[C@H]1CC(C(=O)O)C[C@@H]1N=C(N)N (stereo partly specified) | 4.74 | – |
| CCCN(CC1CC1)C(=O)C(NC(C)=O)[C@H]1CC(C(=O)O)C[C@@H]1N=C(N)N (stereo partly specified) | 4.62 | – |

| SMILES | pIC50 [1] | further results |
| --- | --- | --- |
| CC(=O)NC(C(=O)N1CCCCC1C)[C@H]1CC(C(=O)O)C[C@@H]1N=C(N)N (stereo partly specified) | 4.98 | – |
| CC(=O)NC(C(=O)O)[C@@H]1CCC(=C2SCCCS2)C1 (mixture of isomers; form 1) | 5.52 | Max weight loss [3]: 3.1%; pIC50 [2]: 8.15; Max weight loss [4]: 8.7%; Max weight loss [5]: 12.7%; Max weight loss [6]: 27.5% |
| CC(=O)NC(C(=O)N1CCCC(C)C1)[C@H]1CC(C(=O)O)C[C@@H]1N=C(N)N (stereo partly specified) | < 5.00 | – |
| CCCC1CCCCN1C(=O)C(NC(C)=O)[C@H]1CC(C(=O)O)C[C@@H]1N=C(N)N (stereo partly specified) | 4.84 | – |
| CCCCCCN(C)C(=O)C(NC(C)=O)[C@H]1CC(C(=O)O)C[C@@H]1N=C(N)N (stereo partly specified) | < 4.52 | – |
| CCC(C)NC(=O)C(NC(C)=O)[C@H]1CC(C(=O)O)C[C@@H]1N=C(N)N (stereo partly specified) | 4.78 | – |
| CCC(COC)NC(=O)C(NC(C)=O)[C@H]1CC(C(=O)O)C[C@@H]1N=C(N)N (stereo partly specified) | 4.70 | – |
| CC(=O)NC(C(=O)NCCc1ccccc1)[C@H]1CC(C(=O)O)C[C@@H]1N=C(N)N (stereo partly specified) | 4.15 | – |
| CCN(CC)C(=O)C(NC(C)=O)[C@H]1C[C@@H](C(=O)O)C[C@@H]1N=C(N)N (stereo partly specified) | 5.82 | pIC50 [2]: 8.15 |
| CC(=O)NC(C(=O)N1CCCC1)[C@H]1CC(C(=O)O)C[C@@H]1N=C(N)N (stereo partly specified) | 4.62 | – |
| CCN(CC)C(=O)C(NC(C)=O)[C@H]1CC(C(=O)O)C[C@@H]1N=C(N)N (stereo partly specified) | 5.52 | – |
| CC(=O)NC(C(=O)N(C)CCc1ccccc1)[C@H]1CC(C(=O)O)C[C@@H]1N=C(N)N (stereo partly specified) | 4.57 | – |
| CCN(CC)C(=O)C(NC(C)=O)[C@H]1C[C@@](O)(C(=O)O)C[C@@H]1N=C(N)N (stereo partly specified) | – | pIC50 [2]: 5.80 |
| CC(=O)NC(C(=O)N1CCCCC1)[C@H]1CC(C(=O)O)C[C@@H]1N=C(N)N (stereo partly specified) | 5.16 | – |
| C=CCNC(=O)C(NC(C)=O)[C@H]1CC(C(=O)O)C[C@@H]1N=C(N)N (stereo partly specified) | 5.37 | – |
| CC(=O)NC(C(=O)NC(C)C)[C@H]1CC(C(=O)O)C[C@@H]1N=C(N)N (stereo partly specified) | 5.34 | – |
| CCN(Cc1ccccc1)C(=O)C(NC(C)=O)[C@H]1CC(C(=O)O)C[C@@H]1N=C(N)N (stereo partly specified) | < 4.52 | – |
| CCCN(C)C(=O)C(NC(C)=O)[C@H]1CC(C(=O)O)C[C@@H]1N=C(N)N (stereo partly specified) | 5.21 | – |
| CCC(CC)NC(=O)C(NC(C)=O)[C@H]1CC(C(=O)O)C[C@@H]1N=C(N)N (stereo partly specified) | 5.52 | – |
| CCCCC(CC)NC(=O)C(NC(C)=O)[C@H]1CC(C(=O)O)C[C@@H]1N=C(N)N (stereo partly specified) | 4.80 | – |
| CCCCC(C)NC(=O)C(NC(C)=O)[C@H]1CC(C(=O)O)C[C@@H]1N=C(N)N (stereo partly specified) | 4.43 | – |
| COCC(C)NC(=O)C(NC(C)=O)[C@H]1CC(C(=O)O)C[C@@H]1N=C(N)N (stereo partly specified) | 4.60 | – |
| CC(=O)NC(C(=O)O)[C@@H]1CCC(=C2SCCCS2)C1 (mixture of isomers; form 2) | 5.52 | pIC50 [2]: 7.22 |
